Bounds are passed on as bounds.

What all share (conditions): averaged IC50
The target of assay [1] is His-tagged recombinant human MER cytoplasmic domain (Homo sapiens (Human), UniProt Q12866). Put plainly: MER Enzyme Assay (LanthaScreen Eu Kinase Binding, TR-FRET). The method, boiled down: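 LanthaScreen Eu kinase binding (tracer displacement) assay with His-tagged human MER cytoplasmic domain, 60 min incubation at 22 °C. TR-FRET dual-wavelength emission ratio converted to percent of control; IC50 is where the 4-parameter logistic fit crosses 50 POC.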
(In general: Time-resolved FRET reads energy transfer from a long-lived donor to a nearby acceptor.)

Assay [2] concerns the target His-tagged recombinant human AXL cytoplasmic domain (Homo sapiens (Human), UniProt P30530). Put plainly: AXL Enzyme Assay (LanthaScreen Eu Kinase Binding, TR-FRET). A digest of the protocol: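 LanthaScreen Eu kinase binding format, incubated 60 min at 22 °C and read by TR-FRET dual-wavelength emission ratio as percent of control. IC50 taken where a 4-parameter logistic fit crosses 50 POC.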

The target in assay [3] is GST-tagged recombinant human TYRO3 kinase domain (Homo sapiens (Human), UniProt Q06418). Kind of assay: TYRO3 Enzyme Assay (LanthaScreen Eu Kinase Binding, TR-FRET). The method, boiled down: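 LanthaScreen Eu binding (tracer displacement) format read by TR-FRET after 60 min at 22 °C. Emission ratio converted to percent of control; IC50 taken where a 4-parameter logistic fit crosses 50 POC.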
Chain of GST-tagged recombinant human TYRO3 kinase domain (Q06418 518-790): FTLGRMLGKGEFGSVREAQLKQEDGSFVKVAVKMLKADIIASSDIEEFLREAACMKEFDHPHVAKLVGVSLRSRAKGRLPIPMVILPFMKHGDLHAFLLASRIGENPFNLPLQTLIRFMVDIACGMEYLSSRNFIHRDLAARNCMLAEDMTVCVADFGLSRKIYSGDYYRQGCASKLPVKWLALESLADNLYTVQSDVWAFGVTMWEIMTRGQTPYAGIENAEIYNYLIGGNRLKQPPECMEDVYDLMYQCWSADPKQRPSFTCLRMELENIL

Chain of His-tagged recombinant human MER cytoplasmic domain (Q12866 527-999): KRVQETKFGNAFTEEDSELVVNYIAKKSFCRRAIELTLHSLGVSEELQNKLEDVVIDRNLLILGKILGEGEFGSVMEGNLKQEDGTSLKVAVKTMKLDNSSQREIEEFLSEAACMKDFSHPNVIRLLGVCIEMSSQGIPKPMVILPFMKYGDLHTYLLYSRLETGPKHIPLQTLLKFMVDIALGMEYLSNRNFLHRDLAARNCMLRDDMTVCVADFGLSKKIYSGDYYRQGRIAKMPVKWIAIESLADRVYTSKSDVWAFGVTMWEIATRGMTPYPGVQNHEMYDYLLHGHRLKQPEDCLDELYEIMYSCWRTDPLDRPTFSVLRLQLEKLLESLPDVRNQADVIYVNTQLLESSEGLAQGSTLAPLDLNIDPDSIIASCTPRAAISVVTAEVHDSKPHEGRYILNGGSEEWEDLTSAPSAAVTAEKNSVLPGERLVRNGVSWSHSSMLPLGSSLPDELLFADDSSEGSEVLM
Chain of His-tagged recombinant human AXL cytoplasmic domain (P30530 473-894): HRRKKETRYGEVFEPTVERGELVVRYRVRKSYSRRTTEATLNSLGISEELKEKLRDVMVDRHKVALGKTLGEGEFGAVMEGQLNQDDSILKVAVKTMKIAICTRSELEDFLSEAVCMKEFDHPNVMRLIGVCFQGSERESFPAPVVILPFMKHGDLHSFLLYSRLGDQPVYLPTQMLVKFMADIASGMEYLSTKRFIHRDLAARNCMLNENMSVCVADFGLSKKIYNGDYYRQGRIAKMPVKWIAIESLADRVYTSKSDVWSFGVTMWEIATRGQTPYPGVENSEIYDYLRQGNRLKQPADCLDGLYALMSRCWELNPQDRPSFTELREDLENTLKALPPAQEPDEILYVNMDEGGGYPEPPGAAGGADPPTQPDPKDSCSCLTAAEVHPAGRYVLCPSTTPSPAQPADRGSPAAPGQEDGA

One may read the IC50 as the concentration at which inhibition is half-maximal. Regarding `CCNc1cc2c(cn1)c(-c1cnn(C(CO)CO)c1)nn2[C@H]1CC[C@@H](Oc2cccc(F)c2F)CC1` [Example 415, 2-(4-(1-((1s,4s)-4-(2,3-difluorophenoxy)cyclohexyl)-6-(ethylamino)-1H-pyrazolo[4,3-c]pyridin-3-yl)-1H-pyrazol-1-yl)propane-1,3-diol], the IC50 in assay [1], in assay [2] and in assay [3] was less than 10 nM in each case.
For `CCNc1cc2c(cn1)c(-c1cnn(C)c1)nn2[C@H]1CC[C@@H](Oc2cccc(C(F)(F)F)c2F)CC1` [Example 498, N-ethyl-1-((1s,4s)-4-(2-fluoro-3-(trifluoromethyl)phenoxy)cyclohexyl)-3-(1-methyl-1H-pyrazol-4-yl)-1H-pyrazolo[4,3-c]pyridin-6-amine], the half-maximal inhibitory concentration (IC50) in assay [1] is less than 10 nM; in assay [2], less than 10 nM; in assay [3], 10 to 100 nM.
In the case of `CCNc1cc2c(cn1)c(N1CCNCC1)nn2[C@H]1CC[C@@H](Oc2cccc(C(F)(F)F)c2F)CC1` [Example 490, N-ethyl-1-((1s,4s)-4-(2-fluoro-3-(trifluoromethyl)phenoxy)cyclohexyl)-3-(piperazin-1-yl)-1H-pyrazolo[4,3-c]pyridin-6-amine], the IC50 in assay [1], in assay [2] and in assay [3] was less than 10 nM throughout.
For the compound `CCNc1cc2c(cn1)c(-c1cnn(C)c1)nn2[C@H]1CC[C@@H](Oc2nccc(N(C)C)c2F)CC1` [Example 349, 1-((1s,4s)-4-((4-(dimethylamino)-3-fluoropyridin-2-yl)oxy)cyclohexyl)-N-ethyl-3-(1-methyl-1H-pyrazol-4-yl)-1H-pyrazolo[4,3-c]pyridin-6-amine], the results for the IC50 in assay [1], in assay [2] and in assay [3] were less than 10 nM, less than 10 nM and 100 to 1000 nM, respectively.
`CNc1cc2c(cn1)c(-c1cnn(C[C@@H](N)CO)c1)nn2[C@H]1CC[C@@H](Oc2ccccc2F)CC1` [Example 432, (R)-2-amino-3-(4-(1-((1s,4S)-4-(2-fluorophenoxy)cyclohexyl)-6-(methylamino)-1H-pyrazolo[4,3-c]pyridin-3-yl)-1H-pyrazol-1-yl)propan-1-ol]: the IC50 in assay [1], in assay [2] and in assay [3] was less than 10 nM each time.
`CCNc1cc2c(cn1)c(-c1cnn(C[C@@H](O)CO)c1)nn2[C@H]1CC[C@@H](Oc2cn(C)nc2C(F)(F)F)CC1` [Example 283, ®-3-(4-(6-(ethylamino)-1-((1s,4S)-4-((1-methyl-3-(trifluoromethyl)-1H-pyrazol-4-yl)oxy)cyclohexyl)-1H-pyrazolo[4,3-c]pyridin-3-yl)-1H-pyrazol-1-yl)propane-1,2-diol]: the IC50 in assay [1], in assay [2] and in assay [3] was less than 10 nM each time.
As to `CCNc1cc2c(cn1)c(C1CCN(CCOC)CC1)nn2[C@H]1CC[C@@H](Oc2nccc(C(F)(F)F)c2F)CC1` [Example 327, N-ethyl-1-((1s,4s)-4-((3-fluoro-4-(trifluoromethyl)pyridin-2-yl)oxy)cyclohexyl)-3-(1-(2-methoxyethyl)piperidin-4-yl)-1H-pyrazolo[4,3-c]pyridin-6-amine], the half-maximal inhibitory concentration (IC50) in assay [1] was less than 10 nM; in assay [2] it was less than 10 nM; in assay [3], 10 to 100 nM.
Take `CCNc1cc2c(cn1)c(-c1cnn(C[C@H](O)C(C)(C)O)c1)nn2[C@H]1CC[C@@H](Oc2nccc(C(F)(F)F)c2F)CC1` [Example 236, (S)-1-(4-(6-(ethylamino)-1-((1s,4R)-4-((3-fluoro-4-(trifluoromethyl)pyridin-2-yl)oxy)cyclohexyl)-1H-pyrazolo[4,3-c]pyridin-3-yl)-1H-pyrazol-1-yl)-3-methylbutane-2,3-diol]: the IC50 in assay [1] is less than 10 nM; in assay [2], less than 10 nM; in assay [3], 10 to 100 nM.
For the compound `CNc1cc2c(cn1)c(-c1cnn(C)c1)nn2[C@H]1CC[C@@H](Oc2cn(C)nc2C(F)(F)F)CC1` [Example 162, N-methyl-3-(1-methyl-1H-pyrazol-4-yl)-1-((1s,4s)-4-((1-methyl-3-(trifluoromethyl)-1H-pyrazol-4-yl)oxy)cyclohexyl)-1H-pyrazolo[4,3-c]pyridin-6-amine], the IC50 in assay [1], in assay [2] and in assay [3] was less than 10 nM each time.
As for `CCNc1cc2c(cn1)c(-c1cnn(C[C@H](O)CO)c1)nn2[C@H]1CC[C@@H](Oc2ccc(F)cc2F)CC1` [Example 444, (S)-3-(4-(1-((1s,4R)-4-(2,4-difluorophenoxy)cyclohexyl)-6-(ethylamino)-1H-pyrazolo[4,3-c]pyridin-3-yl)-1H-pyrazol-1-yl)propane-1,2-diol], the half-maximal inhibitory concentration (IC50) is less than 10 nM in assay [1], less than 10 nM in assay [2] and 10 to 100 nM in assay [3].
Turning to `CCNc1cc2c(cn1)c(-c1cnn(C)c1)nn2[C@H]1CC[C@@H](Oc2cccnc2F)CC1` [Example 183, N-ethyl-1-((1s,4s)-4-((2-fluoropyridin-3-yl)oxy)cyclohexyl)-3-(1-methyl-1H-pyrazol-4-yl)-1H-pyrazolo[4,3-c]pyridin-6-amine], the 50% inhibitory concentration (IC50) in assay [1], in assay [2] and in assay [3] was less than 10 nM in each case.
Consider `CCNc1cc2c(cn1)c(-c1cnn(C[C@H](O)C(C)(C)O)c1)nn2[C@H]1CC[C@@H](Oc2cccc(F)c2F)CC1` [Example 445, (S)-1-(4-(1-((1s,4R)-4-(2,3-difluorophenoxy)cyclohexyl)-6-(ethylamino)-1H-pyrazolo[4,3-c]pyridin-3-yl)-1H-pyrazol-1-yl)-3-methylbutane-2,3-diol], for which the IC50 in assay [1], in assay [2] and in assay [3] was less than 10 nM each time.
With `CCNc1cc2c(cn1)c(-c1cnn(CC(CO)CO)c1)nn2[C@H]1CC[C@@H](Oc2cccnc2C(F)(F)F)CC1` [Example 205, 2-((4-(6-(ethylamino)-1-((1s,4s)-4-((2-(trifluoromethyl)pyridin-3-yl)oxy)cyclohexyl)-1H-pyrazolo[4,3-c]pyridin-3-yl)-1H-pyrazol-1-yl)methyl)propane-1,3-diol], the concentration for half-maximal inhibition (IC50) in assay [1], in assay [2] and in assay [3] was less than 10 nM throughout.
For the compound `CCNc1cc2c(cn1)c(N1CCC(OC)CC1)nn2[C@H]1CC[C@@H](Oc2nccc(C(F)(F)F)c2F)CC1` [Example 333, N-ethyl-1-((1s,4s)-4((3-fluoro-4-(trifluoromethyl)pyridin-2-yl)oxy)cyclohexyl)-3-(4-methoxypiperidin-1-yl)-1H-pyrazolo[4,3-c]pyridin-6-amine], the IC50 in assay [1], in assay [2] and in assay [3] was less than 10 nM throughout.
For `CCNc1cc2c(cn1)c(-c1cnn(C)c1)nn2[C@H]1CC[C@@H](Oc2cn(C)nc2C(F)(F)F)CC1` [Example 279, N-ethyl-3-(1-methyl-1H-pyrazol-4-yl)-1-((1s,4s)-4-((1-methyl-3-(trifluoromethyl)-1H-pyrazol-4-yl)oxy)cyclohexyl)-1H-pyrazolo[4,3-c]pyridin-6-amine], the half-maximal inhibitory concentration (IC50) in assay [1], in assay [2] and in assay [3] was less than 10 nM each time.
In the case of `CCNc1cc2c(cn1)c(N1CCNCC1)nn2[C@H]1CC[C@@H](Oc2nccc(C(F)(F)F)c2F)CC1` [Example 343, N-ethyl-1-((1s,4s)-4((3-fluoro-4-(trifluoromethyl)pyridin-2-yl)oxy)cyclohexyl)-3-(piperazin-1-yl)-1H-pyrazolo[4,3-c]pyridin-6-amine], the IC50 in assay [1], in assay [2] and in assay [3] was less than 10 nM each time.
